Drawing on US8017612B2, “Piperazine compound and use thereof as a HCV polymerase inhibitor” (priority 2006, dated 2011), this text covers IC50 for 17 compounds.

The structures appear in SMILES notation. pIC50: −log10 of the molar value. Bounds are passed on as bounds.

Assay [1] concerns the target T1, HCV polymerase (NS5B) type 1b (Hepatitis C virus genotype 1b, UniProt P26663).
T1 construct: a region encoding NS5B (J Virol 1991 March, 65(3), 1105-13, 544 amino acids after deletion of 47 amino acids on the C-terminal); 6xHis (C); made in house; host or cells: Escherichia coli
Briefly: Assay of enzyme (HCV polymerase) inhibitory activity, type 1b enzyme. The assay is classed as biochemical, HCV BK strain (type 1b). In outline:
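IC50 derived from [3H]UTP incorporation into TCA-insoluble RNA, compared with and without test compound. Reaction (25 °C, 60 min, Tris pH 7.5, 5 mM MgCl2): E. coli-expressed 1b NS5B Δ47 with His tag at 0.5 μg/ml, 5 μg/ml run-off substrate RNA, ATP/GTP/CTP 50 μM, UTP 2 μM.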

In assay [2] the target is T2, HCV polymerase (NS5B) type 1a (Hepatitis C virus genotype 1a, UniProt P26664).
T2 construct: made in house; host or cells: Escherichia coli (by the 'similar method' of the 1b enzyme)
The experiment in a line: Assay of enzyme (HCV polymerase) inhibitory activity, type 1a enzyme. Format: biochemical, HCV type 1a (cloned from the blood of patients). In outline:
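Reactions ran 60 min at 25° C in 20 mM Tris-HCl pH 7.5, 5 mM MgCl2, 50 mM NaCl, holding genotype 1a NS5B (1.5 μg/ml, Δ47 C-terminus, 6His), substrate RNA 5 μg/ml, UTP 2 μM with tritiated UTP and other NTPs 50 μM. IC50 derived from incorporated radiolabel in filter-trapped RNA relative to uninhibited reaction.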

The mark [3] stands for this setting: HCV polymerase inhibitory activity IC50, 1b, type 1b enzyme.
Where [4] appears, read: HCV polymerase inhibitory activity IC50, 1a, type 1a enzyme.
The mark [5] stands for this setting: HCV polymerase inhibitory activity (IC50), 1b, type 1b enzyme 0.5 μg/ml, 25° C., 60 min.
Setting [6] is: HCV polymerase inhibitory activity (IC50), 1a, type 1a enzyme 1.5 μg/ml, 25° C., 60 min.

Take `CCC(F)(F)c1ccc(CNC(=O)[C@H]2CN(c3nc4nc(C)nc(Cl)c4s3)CCN2S(=O)(=O)c2ccc(OC(F)(F)F)cc2)cc1` [Example 928, (R)-4-(7-chloro-5-methyl-thiazolo[4,5-d]pyrimidin-2-yl)-1-(4-trifluoromethoxy-benzenesulfonyl)-piperazine-2-carboxylic acid 4-(1,1-difluoro-propyl)-benzylamide]: the pIC50 in assay [1] (setting [3]) and in assay [2] (setting [4]) was > 7.00 throughout.
Turning to `Cc1nncc2sc(N3CCN(S(=O)(=O)c4ccc(OC(F)(F)F)cc4)[C@@H](C(=O)NCc4ccc(OC(F)(F)F)cc4)C3)nc12` [Example 917, (R)-4-(4-methyl-thiazolo[4,5-d]pyridazin-2-yl)-1-(4-trifluoromethoxy-benzenesulfonyl)-piperazine-2-carboxylic acid 4-trifluoromethoxy-benzylamide], the negative logarithm of the IC50 (pIC50) in assay [1] (setting [3]) and in assay [2] (setting [4]) was > 7.00 throughout.
Regarding `CC(C)c1ccc(CNC(=O)[C@H]2CN(C(=O)Nc3nnco3)CCN2S(=O)(=O)c2ccc(C(F)(F)F)cc2)cc1` [Example 348, (R)-4-(4-trifluoromethyl-benzenesulfonyl)-piperazine-1,3-dicarboxylic acid 3-(4-isopropyl-benzylamide) 1-[1,3,4]oxadiazol-2-ylamide], the pIC50 in assay [1] (setting [5]) and in assay [2] (setting [6]) was 6.00 to 7.00 in each case.
As to `CC(C)c1ccc(CNC(=O)[C@H]2CN(c3cc(C(=O)O)[nH]n3)CCN2S(=O)(=O)c2ccc(C(F)(F)F)cc2)cc1` [Example 426, 5-[(R)-3-(4-isopropyl-benzylcarbamoyl)-4-(4-trifluoromethyl-benzenesulfonyl)-piperazin-1-yl]-2H-pyrazole-3-carboxylic acid], the negative logarithm of the IC50 (pIC50) in assay [1] (setting [5]) was 6.00 to 7.00; in assay [2] (setting [6]), < 6.00.
With `O=C(CC(=O)N1CCN(S(=O)(=O)c2ccc(OC(F)(F)F)cc2)[C@@H](C(=O)NCc2ccc(OC(F)(F)F)cc2)C1)Nc1nnc(Br)s1` [Example 988, (R)-4-[2-(5-bromo-[1,3,4]thiadiazol-2-ylcarbamoyl)-acetyl]-1-(4-trifluoromethoxy-benzenesulfonyl)-piperazine-2-carboxylic acid 4-trifluoromethoxy-benzylamide], the pIC50 in assay [1] (setting [3]) and in assay [2] (setting [4]) was < 6.00 throughout.
On to `O=C(NCc1ccc(OC(F)F)cc1)[C@H]1CN(c2nc3nc(C(F)(F)F)ncc3s2)CCN1S(=O)(=O)c1ccc(OC(F)(F)F)cc1` [Example 1000, (R)-1-(4-trifluoromethoxy-benzenesulfonyl)-4-(5-trifluoromethyl-thiazolo[4,5-d]pyrimidin-2-yl)-piperazine-2-carboxylic acid 4-difluoromethoxy-benzylamide], for which the negative-log IC50 (pIC50) in assay [1] (setting [3]) and in assay [2] (setting [4]) was > 7.00 in each case.
For the compound `CC(=O)N1CCN(S(=O)(=O)c2cccc(C(=O)O)c2)C(C(=O)NCc2ccc(C(F)(F)F)cc2)C1` (stereo not shown) [Example 168, 3-[4-acetyl-2-(4-trifluoromethyl-benzylcarbamoyl)-piperazine-1-sulfonyl]-benzoic acid], the negative-log IC50 (pIC50) in assay [1] (setting [5]) and in assay [2] (setting [6]) was < 6.00 throughout.
For the compound `O=C(NCc1ccc(OC(F)(F)F)cc1)[C@H]1CN(c2nc3cnnc(Cl)c3s2)CCN1S(=O)(=O)c1ccc(OC(F)(F)F)cc1` [Example 869, (R)-4-(7-chloro-thiazolo[4,5-d]pyridazin-2-yl)-1-(4-trifluoromethoxy-benzenesulfonyl)-piperazine-2-carboxylic acid 4-trifluoromethoxy-benzylamide], the pIC50 in assay [1] (setting [3]) and in assay [2] (setting [4]) was > 7.00 each time.
Consider `O=C(NCc1ccc(OC(F)(F)F)cc1)[C@H]1CN(c2nc3nc(C4(O)CC4)ncc3s2)CCN1S(=O)(=O)c1ccc(OC(F)(F)F)cc1` [Example 1080, (R)-4-[5-(1-hydroxy-cyclopropyl)-thiazolo[4,5-d]pyrimidin-2-yl]-1-(4-trifluoromethoxy-benzenesulfonyl)-piperazine-2-carboxylic acid 4-trifluoromethoxy-benzylamide], for which the negative-log IC50 (pIC50) in assay [1] (setting [3]) and in assay [2] (setting [4]) was > 7.00 in each case.
On to `COc1cccc(CNC(=O)[C@H]2CN(C(C)=O)CCN2S(=O)(=O)c2ccc(OC(F)(F)F)cc2)c1` [Example 636, (R)-4-acetyl-1-(4-trifluoromethoxy-benzenesulfonyl)-piperazine-2-carboxylic acid 3-methoxy-benzylamide], for which the pIC50 in assay [1] (setting [5]) and in assay [2] (setting [6]) was < 6.00 each time.
Turning to `Cc1ncc2sc(N3CCN(S(=O)(=O)c4ccc(C(F)(F)F)cc4)[C@@H](C(=O)NCc4ccc(OC(F)(F)F)cc4)C3)nc2n1` [Example 925, (R)-4-(5-methyl-thiazolo[4,5-d]pyrimidin-2-yl)-1-(4-trifluoromethyl-benzenesulfonyl)-piperazine-2-carboxylic acid 4-trifluoromethoxy-benzylamide], the negative-log IC50 (pIC50) in assay [1] (setting [3]) and in assay [2] (setting [4]) was > 7.00 throughout.
With `CCCc1ccc(CNC(=O)[C@H]2CN(c3ccc(C(=O)O)cc3)CCN2S(=O)(=O)c2ccc(OC(F)(F)F)cc2)cc1` [Example 413, 4-[(R)-3-(4-propyl-benzylcarbamoyl)-4-(4-trifluoromethoxy-benzenesulfonyl)-piperazin-1-yl]-benzoic acid], the pIC50 is > 7.00 in assay [1] (setting [5]) and 6.00 to 7.00 in assay [2] (setting [6]).
Take `CC(=O)N1CCN(S(=O)(=O)c2ccc(C(C)C)cc2)[C@@H](C(=O)NCCc2cccc(Cl)c2)C1` [Example 150, (R)-4-acetyl-1-(4-isopropyl-benzenesulfonyl)-piperazine-2-carboxylic acid [2-(3-chloro-phenyl)-ethyl]-amide]: the negative-log IC50 (pIC50) in assay [1] (setting [5]) and in assay [2] (setting [6]) was < 6.00 in each case.
For the compound `CC(C)c1ccc(CNC(=O)[C@H]2CN(C3CC(=O)NC3=O)CCN2S(=O)(=O)c2ccc(C(F)(F)F)cc2)cc1` (stereo partly drawn) [Example 147, (R)-4-(2,5-dioxo-pyrrolidin-3-yl)-1-(4-trifluoromethyl-benzenesulfonyl)-piperazine-2-carboxylic acid 4-isopropyl-benzylamide], the pIC50 in assay [1] (setting [5]) was 6.00 to 7.00; in assay [2] (setting [6]) it was < 6.00.
As to `CCCn1ccc(CNC(=O)[C@H]2CN(C(C)=O)CCN2S(=O)(=O)c2ccc(OC(F)(F)F)cc2)cc1=O` [Example 634, (R)-4-acetyl-1-(4-trifluoromethoxy-benzenesulfonyl)-piperazine-2-carboxylic acid (2-oxo-1-propyl-1,2-dihydro-pyridin-4-ylmethyl)-amide], the values for the pIC50 in assay [1] (setting [5]) and in assay [2] (setting [6]) were < 6.00 and 6.00 to 7.00, respectively.
`CC(C)c1ccc(CNC(=O)[C@H]2CN(C(=O)Cn3cnnn3)CCN2S(=O)(=O)c2ccc(C(F)(F)F)cc2)cc1` [Example 257, (R)-4-(2-tetrazol-1-yl-acetyl)-1-(4-trifluoromethyl-benzenesulfonyl)-piperazine-2-carboxylic acid 4-isopropyl-benzylamide]: the pIC50 in assay [1] (setting [5]) and in assay [2] (setting [6]) was > 7.00 each time.
Regarding `COC(=O)c1cnc(N2CCN(S(=O)(=O)c3ccc(C(F)(F)F)cc3)[C@@H](C(=O)NCc3ccc(C(C)C)cc3)C2)nc1C` [Example 337, 2-[(R)-3-(4-isopropyl-benzylcarbamoyl)-4-(4-trifluoromethyl-benzenesulfonyl)-piperazin-1-yl]-4-methyl-pyrimidine-5-carboxylic acid methyl ester], the results for the negative logarithm of the IC50 (pIC50) in assay [1] (setting [5]) and in assay [2] (setting [6]) were 6.00 to 7.00 and < 6.00, respectively.

Usually pIC50 stands for the negative decadic logarithm of the IC50, by convention in mol/L. A lower pIC50 goes with a high IC50.
